From article PMC8802628, “Selective activation of PFKL suppresses the phagocytic oxidative burst” (Cell, 2021)

What was measured:
[1] = target: T1, 14-3-3 protein beta/alpha (YWHAB) (Homo sapiens, UniProt P31946); assay: Photoaffinity labeling pull-down (Data S1); assay type: binding; settings: Comparison PALP1_NA11-PALP1
T1 construct: endogenous in cells; host or cells: human blood leukocytes, labelled live
Protocol: Buffy coats (100 mL) were diluted with ice-cold water (540 mL) for 30 s to lyse red blood cells. Following addition of 10 x HBSS buffer (50 mL) leukocytes were pelleted for 3 min at 300 x g, then washed twice in D-PBS and resuspended in RPMI medium. Cells (2 × 10^7) were plated on 15-cm dishes in DMSO vehicle, 1 μM PALP1 or 1 μM PALP6 for 30 min at 37°C. For competition, 10 μM NA-11 was added for 15 min, and then 1 μM PALP1 was added for an additional 30 min. To crosslink the photoaffinity probe, cells were UV-irradiated (High intensity mercury spot lamp, 100W, 365 nm, UVP) in RPMI for 5 min on ice. Cells were lysed in 200 μL 10 mM Tris pH 7.5, 150 mM NaCl, 1% NP-40, 2.5 mM MgCl2, 0.5 mM CaCl2, 2% glycerol, 10 μg/mL DNase-I, and 1 x EDTA-free Protease inhibitor cocktail. Lysates from 5 plates for each condition were pooled and incubate 10 min on ice.
Biotin-DADPS tagging, biotin-streptavidin affinity purification, and on-bead digestion were performed as described ([Hewings et al., 2018]). Briefly, lysates were cleared by centrifugation and the lysate concentration adjusted to 5 mg/mL. Streptavidin Ultralink Resin (100 μL of 50% slurry, Pierce) was washed twice with PBS and mixed with 1 mL of lysate for 30 min at room temperature. […]
For the classical TPP, quantitative data from each temperature were used to generate a thermal titration curve and calculate a melting point. […]

E. coli = assay: Phagocytosis assay: E. coli C.F.U. recovered from PMNs; assay type: cell-based, human; settings: neutrophils pretreated 30 min
Protocol: Neutrophils (1 × 10^6) were cultured in 6-well tissue in RPMI medium containing DMSO vehicle, 0.5 μM NA-11, 0.5 μM NA-4, 100 μM Apocynin or 100 μM thionicotinamide (TN) for 30 min. E. coli grown in LB broth overnight (2 mL) were opsonized with human serum (1 mL pooled from three donors) for 1 h at room temperature. Opsonized bacteria were washed with PBS, resuspended in LB broth to an OD600of 0.1 and then added to cultured neutrophils at an MOI of 1 for 30 min. Cells were washed with medium three times and then cultured with 300 μg/mL gentamicin for 2 h to kill any extracellular bacteria. Cells were then washed again, twice with medium and once with PBS. To release phagocytosed bacteria, neutrophils were lysed in 0.05% saponin in PBS. Lysates were passed through a 25’ gauge needed several times and the number of viable phagocytosed bacteria was determined by colony counting.

T1 sequence (P31946 whole entry): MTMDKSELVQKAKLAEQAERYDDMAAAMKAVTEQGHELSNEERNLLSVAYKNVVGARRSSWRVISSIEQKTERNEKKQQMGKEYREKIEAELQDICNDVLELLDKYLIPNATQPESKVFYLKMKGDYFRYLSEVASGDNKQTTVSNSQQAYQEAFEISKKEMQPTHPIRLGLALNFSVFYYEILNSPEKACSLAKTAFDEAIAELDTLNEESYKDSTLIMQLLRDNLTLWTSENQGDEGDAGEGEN

## CC(=O)Nc1ccc2c(c1)OCc1cc(-c3ccccc3C#CCCCO)nn1C2 [NA-11]
[1]
  log2FC: 0.13
E. coli
  killing of phagocytosed bacteria (bacterial colonies recovered): produced more bacterial colonies than control neutrophils
